Assay results from patent US6759435B1, “Antidepressant drugs and methods” (A.P. Group Inc., priority 2003, dated 2004).

What was measured:
[1] = tested on: PCA-induced serotonin depletion (5HT uptake into 5HT neurons), rat whole brain; test: Antagonism of parachloroamphetamine (PCA)-induced depletion of serotonin levels from rat brain in vivo; design: species or system Sprague-Dawley CD male rats; conditions: subcutaneous, together with 6.6 mg/kg PCA, whole brain serotonin four hours later
Excerpt: Ability of (1-{2-[1-(3,4-Dichloro-phenyl)-ethyl]-phenyl}-ethyl)-methyl-amine Hydrochloride to Antagonize Parachloroamphetamine (PCA)-induced Depletion of Serotonin Levels from Rat Brain In Vivo
Serotonin uptake blockers show a dose-dependent antagonism of the serotonin-depleting action of PCA, a drug which requires 5HT uptake into 5HT neurons to exert its effect. Sprague-Dawley CD male rats (180-230 g.) in groups of five received two simultaneous subcutaneous injections: either the named test compound (at different dosage levels)+6.6 mg/kg body weight PCA, water+6.6 mg/kg body weight PCA, or water+water (controls). The rats were decapitated four hours later and their whole brain assayed for serotonin content by the Bogdanski method. Homogenates of brain in 0.1N HCl were made alkaline with borate buffer and extracted with butanol. The solvent phase was then extracted with 0.1N HCl. The aqueous extracts were acidified with concentrated HCl and the intrinsic fluorescence of serotonin measured in a spectrophotofluorometer. The ED50, i.e., the dose giving a 50% reversal of the PCA-induced serotonin depletion, was estimated to be 0.1 mg/kg body weight. Similarly, the ED50 for other compounds in Examples 1-17 were determined and were <0.3 mg/kg.

[2] = tested on: immobility of Swiss-Webster CD male mice; test: Reduction of behavioral despair in vivo (modified Porsolt method); conditions: mouse, subcutaneous, tested one hour after injection, linear regression analysis of % MPE data
Method: Reduction of Behavioral Despair In Vivo (Modified Porsolt Method) by (1-{2-[1-(3,4-Dichloro-phenyl)-ethyl]-phenyl}-ethyl)-methyl-amine hydrochloride.
A modification of the procedure described by Porsolt et al., Arch. Int. Pharmnacodyn., 229, pp. 327-336 (1977) was used. A number of Swiss-Webster CD male mice weighing 25-30 g. were housed under standard laboratory conditions for at least one week prior to experimentation. Groups of 10 mice were then injected subcutaneously with either a given dosage of the named test compound or vehicle (5% Emulphor: 5% ethanol: 90% normal saline). One hour later the mice were placed individually in 1 liter beakers containing 7 cm of 25° C. water. […] A total of ten observations were made, each being scored as “0=animal moving, swimming, attempting to escape” or “1=animal immobile”. The number of positive observations for each mouse was then totaled and a mean immobility score calculated for the group of ten. […] From the % MPE data a % MPE50 value, i.e. the dosage producing a 50% reduction in immobility relative to control, was determined by linear regression analysis to be 5.2 mg/kg body weight for the named test compound. Similarly, the % MPE50 values were determined for other compounds in examples 1-17 and were <8.0 mg/kg.

CNC(C)c1ccccc1C(C)c1ccc(Cl)c(Cl)c1.Cl (centres unmarked) [(1-{2-[1-(3,4-Dichloro-phenyl)-ethyl]-phenyl}-ethyl)-methyl-amine Hydrochloride]
ED50, the dose giving a 50% reversal of the PCA-induced serotonin depletion [1]: 0.1 mg/kg body weight
% MPE50, the dosage producing a 50% reduction in immobility relative to control [2]: 5.2 mg/kg body weight
